Data as given in patent publication US20250115600A1, “COVALENT MODIFIERS OF AKT1 AND USES THEREOF” (Terremoto Biosciences, Inc., priority 2022, published 2025).

Tests used:
Test in all cases: Live cell target engagement (NanoBRET) in HEK293 cells
Assay type in all cases: cell-based
[1] = molecular target: AKT1 WT (Homo sapiens (Human), UniProt P31749); details: HEK293, 2 hours at 37° C.
[2] = molecular target: AKT1 E17K (Homo sapiens (Human), UniProt P31749, E17K); details: for IC50: HEK293, 2 hours at 37° C.
Sequence of AKT1 E17K (P31749 whole entry E17K): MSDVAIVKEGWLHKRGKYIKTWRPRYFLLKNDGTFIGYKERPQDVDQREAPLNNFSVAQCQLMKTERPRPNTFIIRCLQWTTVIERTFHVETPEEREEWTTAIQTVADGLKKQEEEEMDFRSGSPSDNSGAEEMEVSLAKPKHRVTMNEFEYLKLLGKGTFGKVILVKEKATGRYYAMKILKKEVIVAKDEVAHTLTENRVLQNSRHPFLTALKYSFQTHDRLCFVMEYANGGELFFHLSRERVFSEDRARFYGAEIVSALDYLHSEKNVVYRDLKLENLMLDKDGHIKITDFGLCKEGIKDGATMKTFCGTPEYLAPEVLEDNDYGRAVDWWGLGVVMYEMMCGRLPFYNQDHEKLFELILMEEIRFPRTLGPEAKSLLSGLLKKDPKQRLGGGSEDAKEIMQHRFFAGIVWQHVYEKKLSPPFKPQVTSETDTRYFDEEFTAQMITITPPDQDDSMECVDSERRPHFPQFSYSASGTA

[3] = molecular target: AKT2 (Homo sapiens (Human), UniProt P31751); details: HEK293, 2 hours at 37° C.
Sequence of AKT2 (P31751 whole entry): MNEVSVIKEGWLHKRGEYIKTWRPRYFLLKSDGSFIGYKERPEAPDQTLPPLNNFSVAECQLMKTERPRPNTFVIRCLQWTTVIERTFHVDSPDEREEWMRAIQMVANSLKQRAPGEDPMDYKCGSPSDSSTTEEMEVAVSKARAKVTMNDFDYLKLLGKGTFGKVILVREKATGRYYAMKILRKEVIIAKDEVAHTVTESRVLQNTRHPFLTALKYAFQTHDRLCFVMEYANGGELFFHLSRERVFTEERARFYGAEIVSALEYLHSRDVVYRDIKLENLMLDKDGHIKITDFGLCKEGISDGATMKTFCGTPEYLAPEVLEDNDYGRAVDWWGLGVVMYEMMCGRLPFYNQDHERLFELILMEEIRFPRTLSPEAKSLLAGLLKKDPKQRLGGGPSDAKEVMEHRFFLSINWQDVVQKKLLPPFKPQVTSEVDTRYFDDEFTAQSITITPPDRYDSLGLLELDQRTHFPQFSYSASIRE

Sequence of AKT1 WT (P31749 whole entry): as the sequence (P31749 whole entry E17K) above, with K17E counted along it

Row | SMILES | IC50 [1] | AKT1 E17K IC50: Selectivity vs AKT1 WT [2] | AKT1 E17K IC50: Selectivity vs AKT2 [2] | IC50 [2] | IC50 [3]
1 | Cn1cc(C(=O)Nc2cc(CC(=O)NCc3ccc(-n4c(-c5cccnc5N)nc5cccnc54)cc3)ccc2C=O)cn1 [Compound 44, N-(5-(2-((4-(2-(2-aminopyridin-3-yl)-3H-imidazo[4,5-b]pyridin-3-yl)benzyl)amino)-2-oxoethyl)-2-formylphenyl)-1-methyl-1H-pyrazole-4-carboxamide] | > 500 nM | 3.6 | 34 | 100 to 500 nM | > 500 nM
2 | Nc1ncccc1-c1nc2ccc(-c3ccccc3)nc2n1-c1ccc(CNc2cc(-c3ccc(C=O)c(O)c3)ccn2)cc1 [Compound 87, 4-(2-((4-(2-(2-aminopyridin-3-yl)-5-phenyl-3H-imidazo[4,5-b]pyridin-3-yl)benzyl)amino)pyridin-4-yl)-2-hydroxybenzaldehyde] | > 500 nM | 0.72 | 1.6 | > 500 nM | > 500 nM
3 | CN(CCc1ccc(C=O)c(O)c1)C(=O)c1ccc(-n2c(-c3cccnc3N)nc3ccc(-c4ccccc4)nc32)cc1 [Compound 57, 4-[2-(2-aminopyridin-3-yl)-5-phenylimidazo[4,5-b]pyridin-3-yl]-N-[2-(4-formyl-3-hydroxyphenyl)ethyl]-N-methylbenzamide] | 100 to 500 nM | 2.7 | 13 | 100 to 500 nM | > 500 nM
4 | Nc1ncccc1-c1nc2ccc(-c3ccccc3)nc2n1-c1ccc(C(=O)NCC#Cc2ccc(C=O)c(O)c2)cc1 [Compound 104, 4-(2-(2-aminopyridin-3-yl)-5-phenyl-3H-imidazo[4,5-b]pyridin-3-yl)-N-(3-(4-formyl-3-hydroxyphenyl)prop-2-yn-1-yl)benzamide] | > 500 nM | 0.72 | 1 | > 500 nM | > 500 nM
5 | Nc1ncccc1-c1nc2cccnc2n1-c1ccc(CNC(=O)c2ccc(O)c(C=O)c2)cc1 [Compound 83, N-({4-[2-(2-aminopyridin-3-yl)imidazo[4,5-b]pyridin-3-yl]phenyl}methyl)-3-formyl-4-hydroxybenzamide] | 100 to 500 nM | 10 | 99 | < 100 nM | > 500 nM
6 | Nc1ncccc1-c1nc2cc(-c3ccccc3)cnc2n1-c1ccc(CNCCc2ccc(C=O)c(O)c2)cc1 [Compound 124, 4-(2-((4-(2-(2-aminopyridin-3-yl)-6-phenyl-3H-imidazo[4,5-b]pyridin-3-yl)benzyl)amino)ethyl)-2-hydroxybenzaldehyde] | > 500 nM | 3.1 | 13 | 100 to 500 nM | > 500 nM
7 | Cc1c(CC(=O)NCc2ccc(-n3c(-c4cccnc4N)nc4ccc(-c5ccccc5)nc43)cc2)ccc(C=O)c1O [Example 14, N-({4-[2-(2-aminopyridin-3-yl)-5-phenylimidazo[4,5-b]pyridin-3-yl]phenyl}methyl)-2-(4-formyl-3-hydroxy-2-methylphenyl)acetamide] | < 100 nM | 3.3 | 36 | < 100 nM | 100 to 500 nM
8 | Nc1ncccc1-c1nc2ccc(-c3ccccc3)nc2n1-c1ccc(S(=O)(=O)NCCc2ccc(C=O)c(O)c2)cc1 [Compound 106, 4-[2-(2-aminopyridin-3-yl)-5-phenylimidazo[4,5-b]pyridin-3-yl]-N-[2-(4-formyl-3-hydroxyphenyl)ethyl]benzenesulfonamide] | > 500 nM | 0.85 | 0.91 | > 500 nM | > 500 nM
9 | COc1c(CCNCc2ccc(-n3c(-c4cccnc4N)nc4ccc(-c5ccccc5)nc43)cc2)ccc(C=O)c1O [Compound 76, 4-{2-[({4-[2-(2-aminopyridin-3-yl)-5-phenylimidazo[4,5-b]pyridin-3-yl]phenyl}methyl)amino]ethyl}-2-hydroxy-3-methoxybenzaldehyde] | 100 to 500 nM | 1.6 | 4.7 | 100 to 500 nM | 100 to 500 nM
10 | Nc1ncccc1-c1nc2cccnc2n1-c1ccc(CNC(=O)c2ccc(C=O)c(O)c2)cc1 [Compound 84, N-({4-[2-(2-aminopyridin-3-yl)imidazo[4,5-b]pyridin-3-yl]phenyl}methyl)-4-formyl-3-hydroxybenzamide] | 100 to 500 nM | 0.22 | 4.8 | > 500 nM | > 500 nM
11 | CC(=O)Nc1cccc(-c2ccc3nc(-c4cccnc4N)n(-c4ccc(CNC(=O)Cc5ccc(C=O)c(O)c5)cc4)c3n2)c1 [Example 2, N-(4-(5-(3-acetamidophenyl)-2-(2-aminopyridin-3-yl)-3H-imidazo[4,5-b]pyridin-3-yl)benzyl)-2-(4-formyl-3-hydroxyphenyl)acetamide] | 100 to 500 nM | 3.1 | 19 | < 100 nM | > 500 nM
12 | CC(=O)Nc1c(C=O)ccc(CCNCc2ccc(-n3c(-c4cccnc4N)nc4ccc(-c5ccccc5)nc43)cc2)c1F [Compound 90, N-(3-{2-[({4-[2-(2-aminopyridin-3-yl)-5-phenylimidazo[4,5-b]pyridin-3-yl]phenyl}methyl)amino]ethyl}-2-fluoro-6-formylphenyl)acetamide] | < 100 nM | 0.65 | 1.6 | < 100 nM | < 100 nM
13 | Nc1ncccc1-c1nc2ccc(-c3ccccc3)nc2n1-c1ccc(CNC(=O)CCc2ccc(C=O)c(O)c2)cc1 [Compound 117] |  | 0.47 | 2 | 100 to 500 nM | 100 to 500 nM

Next, values leading:

Row | IC50 [1] | AKT1 E17K IC50: Selectivity vs AKT1 WT [2] | AKT1 E17K IC50: Selectivity vs AKT2 [2] | IC50 [2] | IC50 [3] | SMILES
14 | 100 to 500 nM | 2.2 | 43 | < 100 nM | > 500 nM | Nc1ncccc1-c1nc2cccnc2n1-c1ccc(CNC(=O)C(F)(F)c2ccc(C=O)c(O)c2)cc1 [Compound 78, N-(4-(2-(2-aminopyridin-3-yl)-3H-imidazo[4,5-b]pyridin-3-yl)benzyl)-2,2-difluoro-2-(4-formyl-3-hydroxyphenyl)acetamide]
15 | < 100 nM | 6.1 | 85 | < 100 nM | > 500 nM | Nc1ncccc1-c1nc2ccc(-c3ccc(N4CCOCC4)cc3)nc2n1-c1ccc(CNC(=O)Cc2ccc(C=O)c(O)c2)cc1 [Example 1, N-(4-(2-(2-aminopyridin-3-yl)-5-(4-morpholinophenyl)-3H-imidazo[4,5-b]pyridin-3-yl)benzyl)-2-(4-formyl-3-hydroxyphenyl)acetamide]
16 | < 100 nM | 1 | 2.2 | < 100 nM | 100 to 500 nM | Nc1ncccc1-c1nc2ccc(-c3ccccc3)nc2n1-c1ccc(CNCCc2cc(O)c(C=O)c(F)c2)cc1 [Compound 123, 4-(2-((4-(2-(2-aminopyridin-3-yl)-5-phenyl-3H-imidazo[4,5-b]pyridin-3-yl)benzyl)amino)ethyl)-2-fluoro-6-hydroxybenzaldehyde]
17 | < 100 nM | 0.52 |  | < 100 nM |  | Nc1ncccc1-c1nc2ccc(-c3ccccc3)nc2n1-c1ccc(CNC(=O)c2ccc(C=O)c(O)c2)cc1 [Compound 138, N-(4-(2-(2-aminopyridin-3-yl)-5-phenyl-3H-imidazo[4,5-b]pyridin-3-yl)benzyl)-4-formyl-3-hydroxybenzamide]
18 | 100 to 500 nM | 3.8 | 110 | < 100 nM | > 500 nM | Nc1ncccc1-c1nc2ccc(C3CC3)nc2n1-c1ccc(CNC(=O)c2ccc(O)c(C=O)c2)cc1 [Compound 27, N-({4-[2-(2-aminopyridin-3-yl)-5-cyclopropylimidazo[4,5-b]pyridin-3-yl]phenyl}methyl)-3-formyl-4-hydroxybenzamide]
19 | 100 to 500 nM | 7.7 | 65 | < 100 nM | > 500 nM | Nc1ncccc1-c1nc2ccc(-c3cccnc3)nc2n1-c1ccc(CNC(=O)C2(c3ccc(C=O)c(O)c3)CC2)cc1 [Compound 70, N-({4-[2-(2-aminopyridin-3-yl)-5-(pyridin-3-yl)imidazo[4,5-b]pyridin-3-yl]phenyl}methyl)-1-(4-formyl-3-hydroxyphenyl)cyclopropane-1-carboxamide]
20 | 100 to 500 nM | 9 | 110 | < 100 nM | > 500 nM | Cn1cc(-c2ccc3nc(-c4cccnc4N)n(-c4ccc(CNC(=O)Cc5ccc(C=O)c(O)c5)cc4)c3n2)cn1 [Compound 32, N-({4-[2-(2-aminopyridin-3-yl)-5-(1-methylpyrazol-4-yl)imidazo[4,5-b]pyridin-3-yl]phenyl}methyl)-2-(4-formyl-3-hydroxyphenyl)acetamide]
21 | < 100 nM | 3.4 | 140 | < 100 nM | 100 to 500 nM | Nc1ncccc1-c1nc2ccc(-n3cccn3)nc2n1-c1ccc(CNC(=O)Cc2ccc(C=O)c(O)c2)cc1 [Compound 35, N-({4-[2-(2-aminopyridin-3-yl)-5-(pyrazol-1-yl)imidazo[4,5-b]pyridin-3-yl]phenyl}methyl)-2-(4-formyl-3-hydroxyphenyl)acetamide]
22 | < 100 nM | 1.3 | 1.9 | < 100 nM | < 100 nM | Nc1ncccc1-c1nc2ccc(-c3ccccc3)nc2n1-c1ccc(CN2CCC(c3ccc(O)c(C=O)c3)CC2)cc1 [Compound 136, 5-(1-(4-(2-(2-aminopyridin-3-yl)-5-phenyl-3H-imidazo[4,5-b]pyridin-3-yl)benzyl)piperidin-4-yl)-2-hydroxybenzaldehyde]
